# From ChEMBL document CHEMBL1146796, “Design, synthesis and cytotoxic studies on the simplified oxy analog of eleutherobin” (2004)
# Assays:
# [1] = tested on: HBL-100; test: (§1) Cytotoxic effect against HBL-100 (human breast cancer cell lines) by MTT assay at 10 ug concentration; format: functional, cell-based
# [2] = tested on: HBL-100; test: Cytotoxic effect against HBL-100 (human breast cancer cell lines) by MTT assay at 100 ug concentration; format: functional
# [3] = tested on: HBL-100; test: as §1; format: functional
smiles,measurement,setting,value
CC1(C)O[C@@H]2[C@H](O1)[C@@H]1OCc3ccccc3C[C@@H](O)[C@H]2O1,Absorbance,[1],0.153
same,Asorbance,[2],0.081
same,Inhibition,[2],63.3%
same,Viability,[2],36.69%
same,Inhibition,[3],30.62%
same,Viability,[3],69.37%
